Measurements reported in US20210238197A1, “NOVEL OXOQUINOLIZINE COMPOUNDS FOR THE TREATMENT AND PROPHYLAXIS OF BACTERIAL INFECTION” (Hoffmann-La Roche Inc., priority 2018, published 2021).
In brackets after ≈: the same amount, converted by molar mass. Like-named read-outs stand apart in the source and are kept apart here.

Experiments:
A. baumannii (ATCC17978) = test: 50% growth inhibitory concentration (IC50) determination assay, A. baumannii; type: cell-based; settings: Iso-Sensitest broth, growth by OD 600 nm over 16 h, <0.098 = detection limit
Procedure, shortened: (§1)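 Compounds two-fold diluted from 50 to 0.097 μM (final) in Iso-Sensitest broth, inoculum ~5×10^5 CFU/mL. Incubation at 35±2 °C with OD600 read every 20 min over 16 h to track growth.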

S. aureus (ATCC29213) = test: 50% growth inhibitory concentration (IC50) determination assay, S. aureus; type: cell-based; settings: Iso-Sensitest broth, growth by OD 600 nm over 16 h, <0.098 = detection limit
Procedure, shortened: as §1

[1] = system: multiple species and strains; test: microbe, parasite or virus in culture; design: MIC S9 / MIC S7 / MIC S11 / MIC S8 / MIC S10: unit not given beside the values
Procedure, shortened: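 Broth microdilution per CLSI M07-A10 in CAMHB, CAMHB+3% lysed horse blood or HTM. Inoculum was set to OD600 ~0.1, then diluted 1:280 (Gram-positive) or 1:400 (Gram-negative), and plates were incubated 18-24 h at 35±2° C in ambient air. MIC (μg/mL) is the lowest concentration giving no visible growth.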

[2] = system: K. pneumoniae (ATCC10031); test: 50% growth inhibitory concentration (IC50) determination assay, K. pneumoniae; type: cell-based; settings: Iso-Sensitest broth, growth by OD 600 nm over 16 h, <0.098 = detection limit
Procedure, shortened: as §1

HepG2 cells = test: Cytotoxicity assay (HepG2, CellTiter-Blue); type: cell-based
Procedure, shortened: (§2)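 HepG2 cells exposed to compounds for 3 days. Viability read on day 3 by CellTiter-Blue fluorescence after 3 h at 37° C. CC50 obtained from a four-parameter logistic fit.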

[3] = Lyophilisation solubility assay (LYSA); type: physicochemical; settings: aqueous buffer, thermodynamic from solid; 0.05 M phosphate buffer, pH 6.5; <1.0 = detection limit
Description: The solubility of compounds of present invention was assessed by LYSA assay. Samples were prepared in duplicate from 10 mM DMSO stock solutions (20 μL) diluted in 30 μL pure DMSO. After evaporation of DMSO with a centrifugal vacuum evaporator, the residue was dissolved in 0.05 M phosphate buffer (150 μL, pH 6.5), which was stirred for one hour and shook for two hours. After one night, the solution was filtered using a microtiter filter plate. Then the filtrate and its 1/10 dilution were analyzed by HPLC-UV. In addition a four-point calibration curve was prepared from the 10 mM stock solutions and used for the solubility determination of the compounds.

[4] = Single dose PK study (SDPK) in female CD-1 mouse; type: in vivo; settings: IV bolus, 1.0 mg/kg solution; for clearance: plasma, read-out: CL total
Description: The single dose PK in female CD-1 mouse was performed to assess compound's pharmacokinetic properties. One group of animals were dosed via bolus intravenous (IV) of the respective compound. Blood samples (approximately 30 μL) were collected via saphenous vein at 5 mins, 15 min, 30 min, 1 hr, 2 hr, 4 hr and 7 hr. For last time point (24 hr), samples were collected via cardiac puncture while the mouse was under anesthesia. Blood samples were placed into tubes containing EDTA-K2 anticoagulant (2 μL of 0.5M per tube) and centrifuged at 3000 rpm for 10 minutes at 4° C. within half an hour to separate plasma from the samples. Following centrifugation, plasma samples were stored in polypropylene tubes, quick frozen over dry ice and kept at −70±10° C. until LC/MS/MS analysis. The pharmacokinetic parameters were calculated using non-compartmental module of WinNonlin® Professional 6.4.

[5] = Cytotoxicity assay (HepG2, CellTiter-Blue); type: cell-based; settings: human; HepG2 cells, 3 days treatment; >100 = detection limit
Procedure, shortened: as §2

[6] = Acinetobacter baumannii, ATCC17978
[7] = Staphylococcus aureus, ATCC29213
[8] = Acinetobacter baumannii, ATCC19606, read-out: MIC S1, A. baumannii ATCC 19606
[9] = Acinetobacter baumannii, ATCC51432, read-out: MIC S2, A. baumannii ATCC 51432
[10] = Acinetobacter baumannii, ATCCBAA747, read-out: MIC S3, A. baumannii ATCC BAA-747
[11] = Escherichia coli, ATCC25922, read-out: MIC S11, E. coli ATCC 25922
[12] = Escherichia coli, ATCCBAA2340, read-out: MIC S10, E. coli ATCC BAA-2340
[13] = Klebsiella pneumoniae, ATCC10031, read-out: MIC S4, K. pneumoniae ATCC 10031
[14] = Klebsiella pneumoniae, ATCC700603, read-out: MIC S5, K. pneumoniae ATCC 700603
[15] = Klebsiella pneumoniae, ATCCBAA2146, read-out: MIC S6, K. pneumoniae ATCC BAA-2146
[16] = Pseudomonas aeruginosa, ATCC27853, read-out: MIC S7, P. aeruginosa ATCC 27853
[17] = Pseudomonas aeruginosa, ATCCBAA2113, read-out: MIC S8, P. aeruginosa ATCC BAA-2113
[18] = Klebsiella pneumoniae, ATCC10031

| Molecule | IC50 (A. baumannii (ATCC17978); [6]) [nM] | IC50 (S. aureus (ATCC29213); [7]) [nM] | solubility thermodynamic [3] [µg/mL] | MIC [1, 8] [µg/mL] | MIC [1, 9] [µg/mL] | MIC [1, 10] [µg/mL] | MIC S9 ([1]; E. coli ATCC 35218) | MIC [1, 11] [µg/mL] | MIC [1, 12] [µg/mL] | MIC [1, 13] [µg/mL] | MIC [1, 14] [µg/mL] | MIC [1, 15] [µg/mL] | MIC [1, 16] [µg/mL] | MIC [1, 17] [µg/mL] | AUC total [4] [ng·h/mL] | clearance [4] [mL/min/kg] | IC50 [2, 18] [nM] | CC50 at 3 days [5] [nM] | other results |
| --- | --- | --- | --- | --- | --- | --- | --- | --- | --- | --- | --- | --- | --- | --- | --- | --- | --- | --- | --- |
| 7-(5-cyano-4-(cis-(4R)-4 (dimethylamino)-3,3a,4,5,6,6a-hexahydro-1H-cyclopenta[c]pyrrol-2-yl)-6-fluoro-8-(methylamino)-9H-pyrido[2,3-b]indol-3-yl)-4-oxo-4H-quinolizine-3-carboxylic acid [Example 1.12] |  |  |  |  |  |  |  |  |  |  |  |  |  |  |  |  |  |  | IC50 (A. baumannii (ATCC17978)): < 98 nM; IC50 (S. aureus (ATCC29213)): < 98 nM; MIC S9 [1]: 0.541; MIC S1 ([1]; A. baumannii ATCC 19606): 1.082; MIC S2 ([1]; A. baumannii ATCC 51432): 0.541; MIC S3 ([1]; A. baumannii ATCC BAA-747): 0.541; MIC S11 ([1]; E. coli ATCC 25922): 0.203; MIC S10 ([1]; E. coli ATCC BAA-2340): 0.541; MIC S4 ([1]; K. pneumoniae ATCC 10031): 0.068; MIC S5 ([1]; K. pneumoniae ATCC 700603): 2.168; MIC S6 ([1]; K. pneumoniae ATCC BAA-2146): 4.335; MIC S7 ([1]; P. aeruginosa ATCC 27853): 1.082; MIC S8 ([1]; P. aeruginosa ATCC BAA-2113): 2.168; IC50 [2]: < 98 nM; CC50 (HepG2 cells): > 100000 nM |
| CNc1cc(F)c(F)c2c1[nH]c1ncc(-c3ccc4ccc(C(=O)O)c(=O)n4c3)c(N3CCC4CN(C)C[C@@H]43)c12 (stereo in doubt) [Example 1.03, 7-[5,6-difluoro-4-(cis-5-methyl-2,3,3a,4,6,6a-hexahydropyrrolo[2,3-c]pyrrol-1-yl)-8-(methylamino)-9H-pyrido[2,3-b]indol-3-yl]-4-oxo-quinolizine-3-carboxylic acid] | < 98 | < 98 | 134 (≈ 246 µM) | 0.26 (≈ 0.477 µM) | 0.26 (≈ 0.477 µM) | 0.13 (≈ 0.239 µM) | 0.510 | 0.193 (≈ 0.354 µM) | 2.06 (≈ 3.78 µM) | 0.03 (≈ 0.0551 µM) | 4.12 (≈ 7.57 µM) | 2.06 (≈ 3.78 µM) | 1.03 (≈ 1.89 µM) | 2.06 (≈ 3.78 µM) | 374.7 | 39.1 | < 98 | 21900 |  |
| CNc1cc(F)c(F)c2c1[nH]c1ncc(-c3ccc4ccc(C(=O)O)c(=O)n4c3)c(N3CC[C@H]4CN(C)C[C@H]43)c12 [Example 1.04, 7-[4-[(3aS,6aS)-5-methyl-2,3,3a,4,6,6a-hexahydropyrrolo[2,3-c]pyrrol-1-yl]-5,6-difluoro-8-(methylamino)-9H-pyrido[2,3-b]indol-3-yl]-4-oxo-quinolizine-3-carboxylic acid] | < 98 | < 98 | 460 (≈ 845 µM) | 0.128 (≈ 0.235 µM) | 0.128 (≈ 0.235 µM) | 0.128 (≈ 0.235 µM) | 0.128 | 0.048 (≈ 0.0881 µM) | 0.258 (≈ 0.474 µM) | 0.032 (≈ 0.0588 µM) | 1.03 (≈ 1.89 µM) | 1.03 (≈ 1.89 µM) | 0.514 (≈ 0.944 µM) | 2.06 (≈ 3.78 µM) | 256 | 64.1 | < 98 | 15000 |  |
| CNc1cc(F)c(C#N)c2c1[nH]c1ncc(-c3ccc4ccc(C(=O)O)c(=O)n4c3)c(N3CC[C@H]4CN(C)C[C@H]43)c12 [Example 1.14, 7-[4-[(3aS,6aS)-5-methyl-2,3,3a,4,6,6a-hexahydropyrrolo[2,3-c]pyrrol-1-yl]-5-cyano-6-fluoro-8-(methylamino)-9H-pyrido[2,3-b]indol-3-yl]-4-oxo-quinolizine-3-carboxylic acid] | < 98 | < 98 |  | 0.108 (≈ 0.196 µM) | 0.215 (≈ 0.39 µM) | 0.215 (≈ 0.39 µM) | 0.108 | 0.04 (≈ 0.0725 µM) | 0.215 (≈ 0.39 µM) | 0.027 (≈ 0.049 µM) | 1.72 (≈ 3.13 µM) | 0.86 (≈ 1.56 µM) | 0.86 (≈ 1.56 µM) | 1.72 (≈ 3.13 µM) | 214 | 78.7 | < 98 | 15300 |  |
| CNc1cc(F)c(Cl)c2c1[nH]c1ncc(-c3ccc4ccc(C(=O)O)c(=O)n4c3)c(N3CC[C@]4(C[C@@H]4N)C3)c12 [Example 5.01D, 7-(4-((1S,3S)-1-amino-5-azaspiro[2.4]heptan-5-yl)-5-chloro-6-fluoro-8-(methylamino)-9H-pyrido[2,3-b]indol-3-yl)-4-oxo-4H-quinolizine-3-carboxylic acid] | < 98 | < 98 |  |  |  |  |  |  |  |  |  |  |  |  | 180 | 93 | < 98 | > 100000 |  |
| CNc1cc(F)cc2c1[nH]c1nc(Oc3cnc(C)nc3)nc(N3C[C@H]4C[C@@H]3C[C@H]4N)c12 [GP-6, reference compound] | < 98 | < 98 | < 1 | 0.339 (≈ 0.78 µM) | 0.339 (≈ 0.78 µM) | 0.169 (≈ 0.389 µM) | 0.169 | 0.127 (≈ 0.292 µM) | 1.36 (≈ 3.13 µM) | < 0.021 | 1.36 (≈ 3.13 µM) | 2.71 (≈ 6.25 µM) | 0.678 (≈ 1.56 µM) | 1.36 (≈ 3.13 µM) | 126.2 | 132 | < 98 | 5600 |  |
